{"source": "paper PMC6720883", "about": "“In Vitro Inhibitory Effects of APINACA on Human Major Cytochrome P450, UDP-Glucuronosyltransferase Enzymes, and Drug Transporters” (Molecules, 2019)", "key": {"OATP1B3": {"target": "OATP1B3 (Homo sapiens, UniProt Q9NPD5)", "sequence (Q9NPD5 whole entry)": "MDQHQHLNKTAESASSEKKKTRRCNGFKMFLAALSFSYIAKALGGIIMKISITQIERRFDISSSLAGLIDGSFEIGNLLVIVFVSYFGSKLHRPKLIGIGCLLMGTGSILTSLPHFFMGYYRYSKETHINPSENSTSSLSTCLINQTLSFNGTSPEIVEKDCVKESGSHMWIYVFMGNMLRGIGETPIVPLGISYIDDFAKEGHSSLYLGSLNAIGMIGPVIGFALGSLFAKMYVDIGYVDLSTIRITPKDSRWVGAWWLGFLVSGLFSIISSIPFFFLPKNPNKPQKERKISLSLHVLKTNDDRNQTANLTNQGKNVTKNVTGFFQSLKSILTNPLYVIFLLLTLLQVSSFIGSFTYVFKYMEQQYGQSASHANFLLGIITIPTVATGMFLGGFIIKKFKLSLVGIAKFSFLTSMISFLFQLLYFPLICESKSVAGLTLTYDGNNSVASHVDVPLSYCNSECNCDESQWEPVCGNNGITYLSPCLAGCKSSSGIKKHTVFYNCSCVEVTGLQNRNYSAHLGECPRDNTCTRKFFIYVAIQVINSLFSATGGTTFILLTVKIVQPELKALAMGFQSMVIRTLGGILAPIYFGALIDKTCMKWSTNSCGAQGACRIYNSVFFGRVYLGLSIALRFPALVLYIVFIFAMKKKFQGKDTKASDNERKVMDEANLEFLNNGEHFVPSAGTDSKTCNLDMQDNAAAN"}, "UGT1A4": {"target": "UGT1A4 (Homo sapiens, UniProt P22310)", "sequence (P22310 29-534)": "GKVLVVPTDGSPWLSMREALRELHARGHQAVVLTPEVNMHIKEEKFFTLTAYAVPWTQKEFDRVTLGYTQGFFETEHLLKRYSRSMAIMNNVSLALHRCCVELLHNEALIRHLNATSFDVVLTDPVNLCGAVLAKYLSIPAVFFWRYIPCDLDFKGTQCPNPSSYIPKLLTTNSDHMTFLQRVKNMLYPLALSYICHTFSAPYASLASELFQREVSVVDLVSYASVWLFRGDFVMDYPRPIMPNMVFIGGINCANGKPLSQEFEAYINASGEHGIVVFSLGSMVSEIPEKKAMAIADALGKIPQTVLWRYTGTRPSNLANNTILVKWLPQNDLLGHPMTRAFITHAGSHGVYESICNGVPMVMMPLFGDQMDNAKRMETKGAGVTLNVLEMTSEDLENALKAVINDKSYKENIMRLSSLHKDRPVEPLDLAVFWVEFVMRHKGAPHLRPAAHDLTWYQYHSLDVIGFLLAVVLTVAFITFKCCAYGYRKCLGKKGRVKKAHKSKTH", "assay": "Inhibition of UGT1A4-catalyzed trifluoperazine N-glucuronidation in human liver microsomes", "description": "The inhibitory effect of APINACA and typical UGT inhibitors on UGT1A1, UGT1A3, UGT1A4, UGT1A6, UGT1A9, and UGT2B7 were evaluated following our previous method by LC–MS/MS after incubation of ultrapooled human liver microsomes with a cocktail of UGT substrates. […] The reactions were initiated by adding UDPGA, and the incubation continued for 60 min at 37 °C in a shaking water bath. The reactions were terminated by adding 50 μL of ice-cold acetonitrile containing internal standards (propofol glucuronide for chenodeoxycholic acid 24-acyl-β-glucuronide and mycophenolic acid glucuronide; and meloxicam for SN-38 glucuronide, trifluoperazine glucuronide, N-acetylserotonin β-D-glucuronide, and naloxone 3-β-D-glucuronide). The incubation mixtures were centrifuged at 13,000× g for 8 min at 4 °C. Next, 50 μL of each supernatant of A and B set was mixed, and aliquots (5 μL) were analyzed by LC–MS/MS. All assays were performed in triplicate, and the average values were used in calculations.\nTo measure the time-dependent inhibition, human liver microsomes were preincubated with the various concentrations of APINACA (final concentrations of 0.1–100 μM) and UDPGA for 30 min at 37 °C. Next, the reaction mixtures were incubated with UGT probe substrate cocktail sets for 60 min at 37 °C. The control reaction was performed by adding methanol instead of the test compounds.\n1.1 (Systat Software, Inc.)."}, "[1]": {"target": "human dopamine transporter", "design": "method as in PMID 28824464", "conditions": "human dopamine transporter overexpressed system; read-out: Ki for inhibition of dopamine uptake; cited from earlier work"}}, "note": "Read-outs that look alike come from different tables or passages of the source.", "data": [{"smiles": "CCCCCn1nc(C(=O)NC23CC4CC(CC(C4)C2)C3)c2ccccc21", "note": "[APINACA, N-(1-adamantyl)-1-pentyl-1H-indazole-3-carboxamide]", "values": [{"measurement": "IC50", "setting": "OATP1B3", "result": "> 250", "unit": "µM"}, {"measurement": "IC50", "setting": "UGT1A4", "result": "> 100", "unit": "µM"}, {"measurement": "IC50", "setting": "UGT1A4; read-out: IC50 UGT1A4 trifluoperazine N-glucuronidation, with 30-min preincubation, pooled human liver microsomes, 30-min preincubation with UDPGA (○)", "result": "> 100", "unit": "µM"}, {"measurement": "Ki", "setting": "[1]", "result": 4.6, "unit": "µM"}]}]}
